Biological target: T1, DrOTOP1 E384A (Danio rerio, UniProt Q7ZWK8, E384A)
T1 construct: A previously generated codon-optimized full-length DrOTOP1[8]; (UniProt: Q7ZWK8) construct; expressed in transfected cells; host or cells: HEK-293 (CRL-1573, ATCC)
T1 sequence (Q7ZWK8 1-586 E384A): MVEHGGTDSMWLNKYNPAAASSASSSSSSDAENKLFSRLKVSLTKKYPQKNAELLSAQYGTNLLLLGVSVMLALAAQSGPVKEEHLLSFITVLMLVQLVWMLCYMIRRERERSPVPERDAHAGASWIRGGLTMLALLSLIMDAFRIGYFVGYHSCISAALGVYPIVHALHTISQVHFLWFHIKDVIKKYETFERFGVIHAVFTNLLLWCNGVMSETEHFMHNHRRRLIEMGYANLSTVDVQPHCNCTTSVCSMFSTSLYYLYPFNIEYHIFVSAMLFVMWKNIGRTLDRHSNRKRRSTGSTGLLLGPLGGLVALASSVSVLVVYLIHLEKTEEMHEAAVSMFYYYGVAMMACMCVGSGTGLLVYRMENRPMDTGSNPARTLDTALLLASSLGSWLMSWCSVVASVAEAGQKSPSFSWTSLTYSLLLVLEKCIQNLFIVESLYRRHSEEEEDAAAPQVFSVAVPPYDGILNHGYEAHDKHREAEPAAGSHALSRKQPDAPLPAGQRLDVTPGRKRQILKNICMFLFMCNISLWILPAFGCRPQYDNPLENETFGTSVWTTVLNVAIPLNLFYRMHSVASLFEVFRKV
Assay: Whole-cell patch-clamp, inhibition of acid-evoked currents, DrOTOP1 E384A (central site)
Type: cell-based, zebrafish (Danio rerio)
Excerpt: To functionally test the significance of the two binding sites identified by cryo-EM, we generated point mutations of DrOTOP1 using the binding poses and conformational changes observed in DrOTOP1_C2.2 to guide our mutations. As per the binding pose that best fits our cryo-EM density, C2.2 forms the following interactions in the outer site: hydrophobic packing against many non-polar residues W126, G130, M133, L134, F271, F570, and M573, and π-stacking with W532 (Fig. 5A). In addition, C2.2 could potentially form H-bonds with E267, if the sidechain is protonated or a water bridge is present, and with H574 if it moves closer (Fig. 5A). Likewise, C2.36 presents a heterocyclic nitrogen that can potentially form a H-bond with E267, similarly, provided a protonation or water bridge is present (Fig. 5B). In addition, C2.36 forms a T-shaped π-stacking interaction with H574, whose sidechain has rotated 90 degrees (compared to DrOTOP1_apo), presumably to accommodate the interaction (Fig. 5B). Considering other inhibitors discovered from the second round of screening, many contain functional groups like the carbonyl groups of Group 1 molecules and the heterocyclic nitrogen atoms of Group 2 molecules (Supplementary Fig. 3E), that can potentially form similar H-bonds with E267 as C2.2 and C2.36, assuming the binding modes are similar. In the central site, C2.2 binds with the following interactions: hydrophobic packing with residues V201, F271, A274, V278, and A388, π-stacking with F277, and H-bonding with E384 (Fig. 5C).
We next tested mutations of the central site (L205W, A274W, F277A, E384A L385W, A388W). V201W and S389W, two additional central site mutations, were excluded from the study due to complete loss of channel activity. Mutation of E384 to alanine is expected to disrupt potential hydrogen bonding with C2.2. Of note, E384 is one of the few charged residues in the central pocket and could form a salt bridge with K281, that could also be affected by the mutation. Additionally, in our DrOTOP1_C2.2 structure, we observed that F277 underwent a substantial rearrangement, likely to avoid steric clash and accommodate C2.2 binding. Thus, we introduced the F277A mutation to test if removing this steric clash would enhance C2.2 inhibition.
HEK-293 cells (CRL-1573, ATCC) were cultured in DMEM (Thermofisher 11995073) containing 10% fetal bovine serum (Life Technology 16000044) and Penicillin-Streptomycin (100 I.U./mL) and (100 µg/mL), respectively. Cells were transfected with WT DrOTOP1 or mutant DrOTOP1 channels in 35 mm petri dishes, with ~ 500 ng DNA and 2 μL TransIT-LT1 transfection reagent (Mirus Bio Corporation, Cat # MIR2300) following the manufacturer’s protocol. All constructs were subcloned into a pcDNA3.1 vector that adds an N-terminal fusion tag consisting of an octahistidine tag followed by eGFP, a Gly-Thr-Gly-Thr linker and a 3C protease cleavage site ([…]) followed by WT DrOTOP1, WT mOTOP1, WT hOTOP1, or mutated DrOTOP1. Point mutations were generated via In-Fusion Cloning (Takara) using single-stranded DNA primers generated through IDT and sequence confirmed by Sanger sequencing (GeneWiz).
Whole-cell patch-clamp recording was performed as previously described[6],[22],[25]. Recordings were made with an Axopatch 200B amplifier, digitized with a Digidata 1322a 16-bit data acquisition system, acquired with pClamp 8.2 and analyzed with Clampfit 10 (Molecular Devices). Recordings were sampled at 5 kHz and filtered at 1 kHz. Patch Pipettes with resistance of […] were fabricated from borosilicate glass, and only recordings with a giga-Ohm seal were used in analysis. Membrane potential was held at −80 mV for the duration of recordings. At the beginning of recordings and between, cells were washed with Tyrode’s solution (see below). […]

C=C(C)COc1ccccc1NC(=O)c1nc[nH]c1C [C2.2]
Hill coefficient: 1.184
inhibition at 3 µM (3 µM, single cells): 10.2%
inhibition at 10 µM (10 µM, single cells or mean): ~40%
inhibition at 30 µM (30 µM, single cells): 70.7%
inhibition at 100 µM (100 µM, single cells): 96.3%
inhibition at 300 µM (300 µM, single cells): 97.3%
IC50 (pH 5.5): 15.3 µM

Reference: paper PMC12549899 (Nature Communications, 2025)
